45 compounds from patent US20210198277A1, “AMINE-SUBSTITUTED ARYL OR HETEROARYL COMPOUNDS” (Epizyme, Inc., priority 2016, published 2021) can be followed below.

As a reminder, the IC50 is the concentration that inhibits the measured activity by half.

SMILES strings stand for the structures. A value given as a limit tells only on which side of the number the result lay.

For the assay, the target named is T1, EHMT2 (Homo sapiens, UniProt Q96KQ7).
T1 construct: host or cells: MDA-MB-231
T1 sequence (Q96KQ7 1-1210): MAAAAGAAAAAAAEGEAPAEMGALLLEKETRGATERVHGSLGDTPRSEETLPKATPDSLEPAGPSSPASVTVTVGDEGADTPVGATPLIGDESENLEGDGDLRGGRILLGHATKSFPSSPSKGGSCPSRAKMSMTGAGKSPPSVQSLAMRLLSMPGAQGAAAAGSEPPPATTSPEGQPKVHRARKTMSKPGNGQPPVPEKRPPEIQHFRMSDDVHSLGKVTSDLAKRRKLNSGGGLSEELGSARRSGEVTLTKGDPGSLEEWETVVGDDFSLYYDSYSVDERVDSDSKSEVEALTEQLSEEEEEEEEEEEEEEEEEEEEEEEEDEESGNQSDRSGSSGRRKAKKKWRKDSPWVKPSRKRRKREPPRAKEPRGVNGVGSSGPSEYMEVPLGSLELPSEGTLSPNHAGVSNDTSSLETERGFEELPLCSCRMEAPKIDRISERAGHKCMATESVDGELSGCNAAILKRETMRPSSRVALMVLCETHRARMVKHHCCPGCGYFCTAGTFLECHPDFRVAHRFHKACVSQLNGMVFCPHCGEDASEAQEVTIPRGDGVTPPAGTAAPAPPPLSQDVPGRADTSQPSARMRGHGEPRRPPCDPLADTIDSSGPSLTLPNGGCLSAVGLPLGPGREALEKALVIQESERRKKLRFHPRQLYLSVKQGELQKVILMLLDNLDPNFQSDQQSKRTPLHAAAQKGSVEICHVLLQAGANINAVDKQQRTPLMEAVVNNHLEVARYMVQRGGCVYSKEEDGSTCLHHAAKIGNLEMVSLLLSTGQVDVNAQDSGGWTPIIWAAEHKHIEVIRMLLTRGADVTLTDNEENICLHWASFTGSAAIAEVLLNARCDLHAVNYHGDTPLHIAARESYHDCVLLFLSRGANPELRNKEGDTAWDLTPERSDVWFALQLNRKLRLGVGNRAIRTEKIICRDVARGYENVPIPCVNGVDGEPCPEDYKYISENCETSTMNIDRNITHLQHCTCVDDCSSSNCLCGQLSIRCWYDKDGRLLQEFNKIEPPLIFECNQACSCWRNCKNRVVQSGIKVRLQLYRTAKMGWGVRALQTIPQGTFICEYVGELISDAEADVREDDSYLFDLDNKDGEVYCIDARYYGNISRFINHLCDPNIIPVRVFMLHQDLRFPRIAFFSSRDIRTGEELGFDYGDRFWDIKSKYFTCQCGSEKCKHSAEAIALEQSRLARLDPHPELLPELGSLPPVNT
Put plainly: MDA-MB-231 H3K9me2 in-cell Western assay (EHMT2 ICW). It is filed as cell-based. The settings on record: Table II; MDA-MB-231 H3K9me2 in-cell Western; read-out: EHMT2 ICW (IC50 μM). The text has this: RPMI/Glutamax medium, Penicillin-Streptomycin, Heat Inactivated Fetal Bovine Serum, and D-PBS were purchased from Life Technologies (Grand Island, N.Y., USA). Odyssey blocking buffer, 800CW goat anti-mouse IgG (H+L) antibody, and Licor Odyssey Infrared Scanner were purchased from Licor Biosciences, Lincoln, Nebr., USA. […] 16% Paraformaldehyde was purchased from Electron Microscopy Sciences, Hatfield, Pa., USA).MDA-MB-231 cells were maintained in complete growth medium (RPMI supplemented with 10% v/v heat inactivated fetal bovine serum) and cultured at 37° C. under 5% CO2. UNC0638 was purchased from Sigma-Aldrich (St. Louis, Mo., USA).
Compound (100 nL) was added directly to 384-well cell plate. MDA-MB-231 cells (ATCC) were seeded in assay medium (RPMI/Glutamax supplemented with 10% v/v heat inactivated fetal bovine serum and 1% Penicillin/Streptomycin, Life Technologies) at a concentration of 3,000 cells per well to a Poly-D-Lysine coated 384-well cell culture plate with 50 μL per well. […] Plates were incubated at room temperature for 30 minutes and then incubated at 37° C., 5% CO2 for additional 48 hours. After the incubation, 50 μL per well of 8% paraformaldehyde (Electron Microscopy Sciences) in PBS was added to the plates and incubated at room temperature for 20 minutes. […] Next, 60 μL per well of Odyssey blocking buffer (Licor Biosciences) was added to each plate and incubated for 1 hour at room temperature. Blocking buffer was removed and 20 μL of monoclonal primary antibody α-H3K9me2 (Abcam) diluted 1:800 in Odyssey buffer with 0.1% Tween 20 (v/v) were added and plates were incubated overnight (16 hours) at 4° C. Plates were washed 5 times with 100 μL per well of wash buffer. Next 20 μL per well of secondary antibody was added (1:500 800CW donkey anti-mouse IgG (H+L) antibody (Licor Biosciences), 1:1000 DRAQ5 (Cell Signaling Technology) in Odyssey buffer with 0.1% Tween 20 (v/v)) and incubated for 1 hour at room temperature. The plates were washed 5 times with 100 μL per well wash buffer then 2 times with 100 μL per well of water. Plates were allowed to dry at room temperature then imaged on a Licor Odyssey Infrared Scanner (Licor Biosciences) which measured integrated intensity at 700 nm and 800 nm wavelengths. Both 700 and 800 channels were scanned.
First, the ratio for each well was determined by:
The average of the ratio values for each well was calculated and used to determine the percent inhibition for each test well in the plate. Control compound was serially diluted three-fold in DMSO for a total of 10 test concentrations beginning at 1 μM. Percent inhibition was calculated as: […]
IC50 curves were generated using triplicate wells per concentration of compound. […] IC50 values were calculated using a non-linear regression (variable slope-four parameter fit model) with by the following formula: […]
`COc1ccc(Nc2nccc(NCCn3cccn3)n2)cc1OCCCN1CCCC1` [Compound 193]: the IC50 lay within 0.1 to 1 µM.
The result for `COc1ccc(Nc2cncc(NCC3CCN(C(C)=O)CC3)c2)cc1OCCCN1CCCC1` [Compound 184] reads over 10 µM; that for `COc1ccc(Nc2nccc(N(C)CC3CCOCC3)n2)cc1OCCCN1CCCC1` [Compound 146], 1 to 10 µM.
To `COc1ccc(Nc2nccc(N(C)Cc3cccnc3)n2)cc1OCCCN1CCCC1` [Compound 135] belongs over 10 µM; to `COc1ccc(Nc2nccc(N3CCCOCC3)n2)cc1OCCCN1CCCC1` [Compound 151], over 10 µM; to `COc1ccc(Nc2nccc(C)n2)cc1OCCCN1CCCC1` [Compound 174], over 10 µM.
The result for `COc1ccc(Nc2nccc(NC(C)(C)C)n2)cc1OCCCN1CCCC1` [Compound 6, N^4-(tert-butyl)-N^2-(4-methoxy-3-(3-(pyrrolidin-1-yl)propoxy)phenyl)pyrimidine-2,4-diamine] reads 1 to 10 µM; that for `COc1ccc(Nc2nc(C)cc(C)n2)cc1OCCCN1CCCC1` [Compound 175], over 10 µM; that for `COc1ccc(Nc2nccc(NCc3ccc4[nH]ncc4c3)n2)cc1OCCCN1CCCC1` [Compound 164], over 10 µM.
As to `COc1ccc(Nc2nccc(N3CCN(S(C)(=O)=O)CC3)n2)cc1OCCCN1CCCC1` [Compound 162], the IC50 was over 10 µM.
The result for `COc1ccc(Nc2ccnc(N(C)CC3CCN(C(C)=O)CC3)c2)cc1OCCCN1CCCC1` [Compound 13, 1-(4-(((4-((4-methoxy-3-(3-(pyrrolidin-1-yl)propoxy)phenyl)amino)pyridin-2-yl)(methyl)amino)methyl)piperidin-1-yl)ethan-1-one] reads over 10 µM; that for `COc1ccc(Nc2cc(OCC3CCN(C(C)=O)CC3)ccn2)cc1OCCCN1CCCC1` [Compound 173], over 10 µM.
`COc1ccc(Nc2nccc(NC3CCS(=O)(=O)CC3)n2)cc1OCCCN1CCCC1` [Compound 152]: the IC50 was over 10 µM.
To `COc1ccc(Nc2nccc(CNC(C)=O)n2)cc1OCCCN1CCCC1` [Compound 144] belongs over 10 µM; to `COc1ccc(Nc2cc(CNC3CCOCC3)n(C)n2)cc1OCCCN1CCCC1` [Compound 127], over 10 µM; to `COc1ccc(Nc2ccnc(OCC3CCN(C(C)=O)CC3)c2)cc1OCCCN1CCCC1` [Compound 157], over 10 µM.
The result for `COc1ccc(Nc2nccc(N3CCC(NC(C)=O)CC3)n2)cc1OCCCN1CCCC1` [Compound 161] reads over 10 µM; that for `CNC(=O)c1cnc(Nc2ccc(OC)c(OCCCN3CCCC3)c2)nc1` [Compound 9, 2-((4-methoxy-3-(3-(pyrrolidin-1-yl)propoxy)phenyl)amino)-N-methylpyrimidine-5-carboxamide], over 10 µM; that for `COc1ccc(Nc2nccc(N3CCC(C(N)=O)CC3)n2)cc1OCCCN1CCCC1` [Compound 153], over 10 µM.
The result for `CNc1nc(Nc2ccc(OC)c(OCCCN3CCCC3)c2)ncc1F` [Compound 187] reads 1 to 10 µM.
Regarding `COc1ccc(Nc2nccc(-c3c(C)noc3C)n2)cc1OCCCN1CCCC1` [Compound 130], the 50% inhibitory concentration (IC50) was over 10 µM.
To `COc1ccc(Nc2cc(NCC3CCNCC3)ccn2)cc1OCCCN1CCCC1` [Compound 10, N^2-(4-methoxy-3-(3-(pyrrolidin-1-yl)propoxy)phenyl)-N^4-(piperidin-4-ylmethyl)pyridine-2,4-diamine] belongs over 10 µM; to `COc1ccc(Nc2nccc(NC3CN(C(C)=O)C3)n2)cc1OCCCN1CCCC1` [Compound 192], 1 to 10 µM.
The result for `COc1ccc(Nc2nccc(NC3COC3)n2)cc1OCCCN1CCCC1` [Compound 137] reads over 10 µM; that for `COc1ccc(Nc2nccc(N3CCN(C)C(=O)C3)n2)cc1OCCCN1CCCC1` [Compound 132], over 10 µM.
The result for `COc1ccc(Nc2nccc(N(C)Cc3ccccn3)n2)cc1OCCCN1CCCC1` [Compound 136] reads over 10 µM.
For `COc1ccc(Nc2nccc(N(C)C3CCOCC3)n2)cc1OCCCN1CCCC1` [Compound 142], the IC50 was over 10 µM.
The result for `COc1ccc(Nc2nccc(N3CCNc4ccccc4C3)n2)cc1OCCCN1CCCC1` [Compound 154] reads over 10 µM.
To `COc1ccc(Nc2nccc(N(C)CCO)n2)cc1OCCCN1CCCC1` [Compound 150] belongs over 10 µM; to `COc1ccc(Nc2nccc(NCC3CCN(C(C)=O)CC3)n2)cc1OC(C)CCN1CCCC1` (stereo not drawn) [Compound 195], 1 to 10 µM; to `COc1ccc(Nc2nccc(N3CC(C(=O)N(C)C)C3)n2)cc1OCCCN1CCCC1` [Compound 170], over 10 µM.
The result for `COc1ccc(Nc2nccc(NCC3CCN(C)CC3)n2)cc1OCCCNc1ccccc1` [Compound 159] reads 1 to 10 µM; that for `CNc1cc(Nc2ccc(OC)c(OCCCN3CCCC3)c2)cnn1` [Compound 188], over 10 µM.
`COc1ccc(Nc2nccc(N(C)CCCO)n2)cc1OCCCN1CCCC1` [Compound 140]: the IC50 was over 10 µM.
As to `COc1ccc(Nc2nc(NCC3CCNCC3)cc(N3CCCC3)n2)cc1OCCCN1CCCC1` [Compound 103], the IC50 was over 10 µM.
Take `COc1ccc(Nc2nccc(N3CCS(=O)(=O)CC3)n2)cc1OCCCN1CCCC1` [Compound 169]: the IC50 was over 10 µM.
To `CNc1cccc(Nc2ccc(OC)c(OCCCN3CCCC3)c2)n1` [Compound 176] belongs over 10 µM.
To `COc1ccc(Nc2nccc(-n3cc(C)cn3)n2)cc1OCCCN1CCCC1` [Compound 180] belongs over 10 µM.
To `COc1ccc(Nc2nccc(NCCC3CCOCC3)n2)cc1OCCCN1CCCC1` [Compound 178] belongs 0.1 to 1 µM; to `COc1ccc(Nc2nccc(NCC3CCN(S(C)(=O)=O)CC3)n2)cc1OCCCN1CCCC1` [Compound 199], 1 to 10 µM; to `COc1ccc(Nc2nccc(NCC3CCN(C(C)=O)CC3)n2)cc1OCCCNc1ccccc1` [Compound 160], over 10 µM.
In the case of `CC(=O)N1CCC(CNc2ccnc(Nc3ccc(C)c(OCCCN4CCCC4)c3)n2)CC1` [Compound 145], the half-inhibitory concentration (IC50) was over 10 µM.
The result for `COc1ccc(Nc2ncc(CO)cn2)cc1OCCCN1CCCC1` [Compound 181] reads over 10 µM; that for `COc1ccc(N(C)c2nccc(NCC3CCN(C(C)=O)CC3)n2)cc1OCCCN1CCCC1` [Compound 158], over 10 µM.
To `COc1ccc(Nc2nccc(N3CCN(c4ccccn4)CC3)n2)cc1OCCCN1CCCC1` [Compound 168] belongs 1 to 10 µM.
